Data taken from ChEMBL document CHEMBL3774336, “Identification of spirooxindole and dibenzoxazepine motifs as potent mineralocorticoid receptor antagonists” (Bioorg Med Chem, 2016).

Assays:
[1] = target: T1, Alpha-2A adrenergic receptor (Homo sapiens) (UniProt P08913); assay: Inhibition of adrenergic alpha2A receptor (unknown origin) at 10 uM
T1 sequence (whole entry): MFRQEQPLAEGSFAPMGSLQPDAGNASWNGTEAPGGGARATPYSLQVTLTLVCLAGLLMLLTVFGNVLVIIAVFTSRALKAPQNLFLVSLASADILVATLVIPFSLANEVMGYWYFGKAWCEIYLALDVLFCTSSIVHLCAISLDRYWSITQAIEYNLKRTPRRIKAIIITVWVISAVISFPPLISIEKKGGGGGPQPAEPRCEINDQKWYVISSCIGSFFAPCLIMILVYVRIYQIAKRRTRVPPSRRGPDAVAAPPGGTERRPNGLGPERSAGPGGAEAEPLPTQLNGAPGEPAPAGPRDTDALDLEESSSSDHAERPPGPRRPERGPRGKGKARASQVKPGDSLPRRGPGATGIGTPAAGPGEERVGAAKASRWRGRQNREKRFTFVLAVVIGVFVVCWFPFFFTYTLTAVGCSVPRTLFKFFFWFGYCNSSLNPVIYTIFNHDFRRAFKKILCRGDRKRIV

[2] = target: T2, Androgen receptor (Rattus norvegicus) (UniProt P15207); assay: Inhibition of GST-tagged rat androgen receptor LBD domain expressed in insect cells at 10 uM by Gal4-based fluorescence polarization assay
T2 sequence (whole entry): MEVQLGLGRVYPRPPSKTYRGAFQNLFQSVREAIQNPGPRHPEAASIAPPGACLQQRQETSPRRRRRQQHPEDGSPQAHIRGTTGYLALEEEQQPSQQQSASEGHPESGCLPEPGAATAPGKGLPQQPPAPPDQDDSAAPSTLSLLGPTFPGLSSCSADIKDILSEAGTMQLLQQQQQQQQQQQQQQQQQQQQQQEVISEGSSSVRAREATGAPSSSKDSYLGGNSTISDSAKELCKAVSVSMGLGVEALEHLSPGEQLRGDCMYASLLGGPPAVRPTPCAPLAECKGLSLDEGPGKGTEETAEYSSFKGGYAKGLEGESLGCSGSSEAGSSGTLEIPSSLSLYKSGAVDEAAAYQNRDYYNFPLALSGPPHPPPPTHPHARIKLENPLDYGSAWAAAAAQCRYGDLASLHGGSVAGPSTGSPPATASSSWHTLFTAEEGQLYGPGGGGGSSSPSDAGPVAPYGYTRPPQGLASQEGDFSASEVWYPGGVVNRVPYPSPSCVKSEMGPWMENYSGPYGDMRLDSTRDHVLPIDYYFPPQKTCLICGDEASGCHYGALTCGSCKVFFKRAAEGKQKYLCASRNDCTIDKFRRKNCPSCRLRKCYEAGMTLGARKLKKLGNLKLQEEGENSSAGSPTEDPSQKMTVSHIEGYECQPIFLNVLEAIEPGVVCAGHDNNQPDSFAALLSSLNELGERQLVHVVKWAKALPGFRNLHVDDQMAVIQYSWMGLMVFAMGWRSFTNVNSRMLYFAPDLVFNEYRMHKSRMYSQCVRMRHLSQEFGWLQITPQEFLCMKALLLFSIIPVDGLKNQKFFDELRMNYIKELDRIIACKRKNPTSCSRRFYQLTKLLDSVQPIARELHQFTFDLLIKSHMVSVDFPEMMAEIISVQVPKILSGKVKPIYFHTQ

[3] = target: T3, Progesterone receptor (Homo sapiens) (UniProt P06401); assay: Inhibition of GST-tagged human progesterone receptor LBD domain expressed in insect cells at 10 uM by Gal4-based fluorescence polarization assay
T3 sequence (whole entry): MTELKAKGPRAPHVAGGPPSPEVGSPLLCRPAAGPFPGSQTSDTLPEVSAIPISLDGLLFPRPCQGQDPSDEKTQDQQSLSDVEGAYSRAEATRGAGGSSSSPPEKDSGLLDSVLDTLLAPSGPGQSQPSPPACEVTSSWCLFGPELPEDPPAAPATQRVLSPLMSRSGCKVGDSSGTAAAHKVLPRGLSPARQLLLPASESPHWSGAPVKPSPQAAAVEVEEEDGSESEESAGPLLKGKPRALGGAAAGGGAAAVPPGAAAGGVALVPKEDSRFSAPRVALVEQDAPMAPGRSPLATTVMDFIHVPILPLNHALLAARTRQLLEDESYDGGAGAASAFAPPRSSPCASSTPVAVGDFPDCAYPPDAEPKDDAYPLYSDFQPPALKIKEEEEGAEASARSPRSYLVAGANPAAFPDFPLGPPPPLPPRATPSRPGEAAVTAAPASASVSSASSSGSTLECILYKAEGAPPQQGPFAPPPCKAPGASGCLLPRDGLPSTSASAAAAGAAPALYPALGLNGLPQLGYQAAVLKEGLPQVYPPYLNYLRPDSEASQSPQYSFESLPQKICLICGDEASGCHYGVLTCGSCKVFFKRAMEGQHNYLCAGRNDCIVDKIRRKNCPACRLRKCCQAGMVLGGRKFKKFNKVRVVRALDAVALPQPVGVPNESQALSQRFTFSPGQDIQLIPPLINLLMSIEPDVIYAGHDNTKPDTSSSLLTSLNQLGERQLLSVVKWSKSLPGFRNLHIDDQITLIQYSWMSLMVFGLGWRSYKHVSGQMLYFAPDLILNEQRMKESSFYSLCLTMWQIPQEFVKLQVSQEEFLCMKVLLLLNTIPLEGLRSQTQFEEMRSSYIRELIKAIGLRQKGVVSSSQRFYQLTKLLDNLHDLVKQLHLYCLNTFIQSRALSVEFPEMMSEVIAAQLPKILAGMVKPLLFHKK

Row | SMILES | inhibition [1] | inhibition [2] | inhibition [3]
1 | CN1CCC2(CC1)C(=O)Nc1cc(/C=C3\c4ccccc4COc4cc(F)ccc43)ccc12 | 100% | < 40% | < 40%
2 | O=C1COc2ccc(/C=C3\c4ccccc4COc4cc(F)ccc43)cc2N1 | 59% | 77% | 98%
